Reference: patent US9498483B2, “2,3,5-trisubstituted thiophene compounds and uses thereof” (priority 2010, dated 2016)

Experiments:
[1] = system: HCV replicon I389luc-ubi-neo/NS3-3′/ET in ET (Huh-lucubineo-ET) cells; assay: Replicon assay (Biological Example 2), luciferase readout; assay type: cell-based; details: Hepatitis C virus
Procedure: A cell line, ET (Huh-lucubineo-ET) was used for screening of compounds for inhibiting HCV RNA dependent RNA polymerase. The ET cell line was stably transfected with RNA transcripts harboring a I389luc-ubi-neo/NS3-3′/ET; replicon with firefly luciferase-ubiquitin-neomycin phosphotransferase fusion protein and EMCV-IRES driven NS3-5B polyprotein containing the cell culture adaptive mutations (E1202G; T12801; K1846T) (Krieger at al, 2001 and unpublished). The ET cells were grown in DMEM (Dulbeco's Modified Eagle's Medium), supplemented with 10% fetal calf serum, 2 mM Glutamine, Penicillin (100 IU/mL)/Streptomycin (100 μg/mL), 1× nonessential amino acids, and 250 μg/mL G418 (“Geneticin”). Reagents were all available through Life Technologies (Bethesda, Md.). The cells were plated at 0.5-1.0×10^4 cells/well in the 96 well plates and incubated for 24 hrs before adding test compound. The compounds were added to the cells to achieve a final concentration of 0.1 nM to 50 μM and a final DMSO (dimethylsulfoxide) concentration of 0.5%. Luciferase activity was measured 48 hours later by adding a lysis buffer and the substrate (Catalog number Glo-lysis buffer E2661 and Bright-Glo luciferase system E2620 Promega, Madison, Wis.). Cells should not be too confluent during the assay. Percent inhibition of replication data was plotted relative to no compound control. To determine the EC50 (effective concentration at which 50% of the maximum inhibition was observed), a 10 point, 3-fold serial dilution for each compound was used, which spans a concentration range of […]. EC50 values were calculated by fitting % inhibition at each concentration to the following equation: % inhibition=100%/[(EC50/[I])^b+1] where b was Hill's coefficient.
In other aspects the EC50 was equal to or less than 10 μM. In still other aspects the EC50 was equal to or less than 1 μM.

HCV polymerase = biological target: T1, HCV polymerase (Hepatitis C virus genotype 1b, UniProt Q9WMX2); assay: Polymerase assay of Biological Example 1 (IC50 values of Table 3); assay type: biochemical; details: IC50 values of Table 3, polymerase assay of Biological Example 1; read-out: NS5B-enzyme3
T1 construct: (His)6 (C); made in house; host or cells: XL-1 cells (E. coli, by own knowledge)
Source text: A number of assays have been published to assess these activities. A general method that assesses the gross increase of HCV virus in culture was disclosed in U.S. Pat. No. 5,738,985 to Miles et al. In vitro assays have been reported in Ferrari et al. Jnl. of Vir., 73:1649-1654, 1999; Ishii et al., Hepatology, 29:1227-1235, 1999; Lohmann et al., Jnl of Bio. Chem., 274:10807-10815, 1999; and Yamashita et al., Jnl. of Bio. Chem., 273:15479-15486, 1998.
WO 97/12033, filed on Sep. 27, 1996, by Emory University, listing C. Hagedorn and A. Reinoldus as inventors, which claims priority to U.S. Provisional Patent Application Ser. No. 60/004,383, filed on September 1995, described an HCV polymerase assay that can be used to evaluate the activity of the of the compounds described herein. Another HCV polymerase assay has been reported by Bartholomeusz, et al., Hepatitis C Virus (HCV) RNA polymerase assay using cloned HCV non-structural proteins; Antiviral Therapy 1996:1 (Supp 4) 18-24.

[2] = ET cells, luciferase activity 48 hours after compound

Compound: CN1CCC(N2CC(=O)N(c3cc(-c4ccccc4)sc3C(=O)O)[C@H](C3CCCCC3)C2)CC1 [Compound 271, 3-[(R)-2-Cyclohexyl-4-(1-methyl-piperidin-4-yl)-6-oxo-piperazin-1-yl]-5-phenyl-thiophene-2-carboxylic acid]
- IC50 [1, 2]: ≥ 5000 nM
- IC50 (HCV polymerase): 2470 nM

Compound: O=C(O)c1sc(-c2ccccc2)cc1N1C(=O)CN(S(=O)(=O)c2ccc(N3CC[C@H](O)C3)nc2)CC1C1CCCCC1 (stereo partly drawn) [Compound 124, 3-{2-Cyclohexyl-4-[6-((S)-3-hydroxy-pyrrolidin-1-yl)-pyridine-3-sulfonyl]-6-oxo-piperazin-1-yl}-5-phenyl-thiophene-2-carboxylic acid]
- IC50 ([1]; between 100 nM and 5.0 uM): 100 to 5000 nM
- IC50 (HCV polymerase): 4 nM

Compound: C[C@@H]1CN(c2ccc(S(=O)(=O)N3CC(=O)N(c4cc(-c5ccccc5)sc4C(=O)O)[C@H](C4CCCCC4)C3)cn2)C[C@H](C)O1 [Compound 167, 3-{(R)-2-Cyclohexyl-4-[6-((2R,6S)-2,6-dimethyl-morpholin-4-yl)-pyridine-3-sulfonyl]-6-oxo-piperazin-1-yl}-5-phenyl-thiophene-2-carboxylic acid]
- IC50 [1, 2]: ≤ 100 nM
- IC50 (HCV polymerase): 3.5 nM

Compound: Cn1ccc2c(S(=O)(=O)N3CC(=O)N(c4cc(-c5ccccc5)sc4C(=O)O)C(C4CCCCC4)C3)cccc21 (centres unmarked) [Compound 64, 3-[2-Cyclohexyl-4-(1-methyl-1H-indole-4-sulfonyl)-6-oxo-piperazin-1-yl]-5-phenyl-thiophene-2-carboxylic acid]
- IC50 ([1]; between 100 nM and 5.0 uM): 100 to 5000 nM
- IC50 (HCV polymerase): 31 nM

Compound: CC(C)(C)C#Cc1cc(N2C(=O)CN(S(=O)(=O)c3c[nH]cn3)C[C@H]2C2CCCCC2)c(C(=O)O)s1 [Compound 247, 3-[(R)-2-Cyclohexyl-4-(1H-imidazole-4-sulfonyl)-6-oxo-piperazin-1-yl]-5-(3,3-dimethyl-but-1-ynyl)-thiophene-2-carboxylic acid]
- IC50 [1, 2]: ≤ 100 nM
- IC50 (HCV polymerase): 2 nM

Compound: O=C(O)c1sc(-c2cccc(F)c2)cc1N1C(=O)CCCC1C1CCCCC1 (centres unmarked) [Compound 48, 3-(2-Cyclohexyl-6-oxo-piperidin-1-yl)-5-(3-fluoro-phenyl)-thiophene-2-carboxylic acid]
- IC50 ([1]; between 100 nM and 5.0 uM): 100 to 5000 nM
- IC50 (HCV polymerase): 187 nM

Compound: Cc1nccc(-c2cccc(S(=O)(=O)N3CC(=O)N(c4cc(-c5ccccc5)sc4C(=O)O)C(C4CCCCC4)C3)c2)n1 (centres unmarked) [Compound 63, 3-{2-Cyclohexyl-4-[3-(2-methyl-pyrimidin-4-yl)-benzenesulfonyl]-6-oxo-piperazin-1-yl}-5-phenyl-thiophene-2-carboxylic acid]
- IC50 ([1]; between 100 nM and 5.0 uM): 100 to 5000 nM
- IC50 (HCV polymerase): 42 nM

Compound: CC(C)(C)C#Cc1cc(N2C(=O)[C@H](CC(O)CO)OC[C@H]2C2CCCCC2)c(C(=O)O)s1 (stereo partly drawn) [Compound 331, 3-[(2S,5R)-5-Cyclohexyl-2-(2,3 dihydroxy-propyl)-3-oxo-morpholin-4-yl]-5-(3,3-dimethyl-but-1-ynyl)-thiophene-2 carboxylic acid]
- IC50 ([1]; between 100 nM and 5.0 uM): 100 to 5000 nM
- IC50 (HCV polymerase): 8 nM

Compound: CC(C)(C)C#Cc1cc(N2C(=O)CN(S(=O)(=O)c3cccc(F)c3)C[C@H]2C2CCCCC2)c(C(=O)O)s1 [Compound 239, 3-[(R)-2-Cyclohexyl-4-(3-fluoro-benzenesulfonyl)-6-oxo-piperazin-1-yl]-5-(3,3-dimethyl-but-1-ynyl)-thiophene-2-carboxylic acid]
- IC50 [1, 2]: ≤ 100 nM
- IC50 (HCV polymerase): 2 nM

Compound: CC(C)(C)C#Cc1cc(N2C(=O)CN(S(=O)(=O)c3ccc(C(F)(F)F)cc3)C[C@H]2C2CCCCC2)c(C(=O)O)s1 [Compound 250, 3-[(R)-2-Cyclohexyl-6-oxo-4-(4-trifluoromethyl-benzenesulfonyl)-piperazin-1-yl]-5-(3,3-dimethyl-but-1-ynyl)-thiophene-2-carboxylic acid]
- IC50 [1, 2]: ≤ 100 nM
- IC50 (HCV polymerase): 5.5 nM

Compound: O=C(O)c1sc(-c2ccccc2)cc1N1C(=O)CN(S(=O)(=O)c2ccc(N(CCO)CCO)nc2)CC1C1CCCCC1 (centres unmarked) [Compound 83, 3-(4-{6-[Bis-(2-hydroxy-ethyl)-amino]-pyridine-3-sulfonyl}-2-cyclohexyl-6-oxo-piperazin-1-yl)-5-phenyl-thiophene-2-carboxylic acid]
- IC50 ([1]; between 100 nM and 5.0 uM): 100 to 5000 nM
- IC50 (HCV polymerase): 3 nM

Compound: O=C(O)c1sc(-c2ccccc2)cc1N1C(=O)CN(S(=O)(=O)c2ccc(N3CCNCC3)nc2)C[C@@H]1C1CCCCC1 [Compound 132, 3-[(S)-2-Cyclohexyl-6-oxo-4-(6-piperazin-1-yl-pyridine-3-sulfonyl)-piperazin-1-yl]-5-phenyl-thiophene-2-carboxylic acid]
- IC50 [1, 2]: ≥ 5000 nM
- IC50 (HCV polymerase): 108 nM

Compound: COC[C@@H]1CCCN1c1ccc(S(=O)(=O)N2CC(=O)N(c3cc(-c4ccccc4)sc3C(=O)O)[C@H](C3CCCCC3)C2)cn1 [Compound 171, 3-{(R)-2-Cyclohexyl-4-[6-((S)-2-methoxymethyl-pyrrolidin-1-yl)-pyridine-3-sulfonyl]-6-oxo-piperazin-1-yl}-5-phenyl-thiophene-2-carboxylic acid]
- IC50 [1, 2]: ≤ 100 nM
- IC50 (HCV polymerase): 2 nM

Compound: CC(C)(C)C#Cc1cc(N2C(=O)C(CCO)CC[C@H]2C2CCCCC2)c(C(=O)O)s1 (single isomer, unassigned) [Compound 343]
- IC50 [1, 2]: ≤ 100 nM
- IC50 (HCV polymerase): 1 nM

Compound: C[C@@H]1CCCN1c1ccc(S(=O)(=O)N2CC(=O)N(c3cc(-c4ccccc4)sc3C(=O)O)[C@@H](C3CCCCC3)C2)cn1 [Compound 131, 3-{(S)-2-Cyclohexyl-4-[6-((R)-2-methyl-pyrrolidin-1-yl)-pyridine-3-sulfonyl]-6-oxo-piperazin-1-yl}-5-phenyl-thiophene-2-carboxylic acid]
- IC50 ([1]; between 100 nM and 5.0 uM): 100 to 5000 nM
- IC50 (HCV polymerase): 261 nM

Compound: O=C1CC(=O)N(c2cc(-c3ccccc3)sc2C(=O)O)C(C2CCCCC2)C1 (centres unmarked) [Compound 9, 3-(2-Cyclohexyl-4,6-dioxo-piperidin-1-yl)-5-phenyl-thiophene-2-carboxylic acid]
- IC50 [1, 2]: ≥ 5000 nM
- IC50 (HCV polymerase): 80 nM

Compound: O=C(O)c1sc(-c2ccccc2)cc1N1C(=O)CN(S(=O)(=O)c2cccc(OC(F)(F)F)c2)CC1C1CCCCC1 (centres unmarked) [Compound 59]
- IC50 ([1]; between 100 nM and 5.0 uM): 100 to 5000 nM
- IC50 (HCV polymerase): 39 nM

Compound: O=C(O)c1ccc(S(=O)(=O)N2CC(=O)N(c3cc(-c4ccccc4)sc3C(=O)O)C(C3CCCCC3)C2)cc1 (centres unmarked) [Compound 30, 3-[4-(4-Carboxy-benzenesulfonyl)-2-cyclohexyl-6-oxo-piperazin-1-yl]-5-phenyl-thiophene-2-carboxylic acid]
- IC50 [1, 2]: ≥ 5000 nM
- IC50 (HCV polymerase): 3 nM

Compound: CN(C)C1CCCN(c2ccc(S(=O)(=O)N3CC(=O)N(c4cc(-c5ccccc5)sc4C(=O)O)[C@H](C4CCCCC4)C3)cn2)C1 (stereo partly drawn) [Compound 155, 3-[(R)-2-Cyclohexyl-4-(3-dimethylamino-3,4,5,6-tetrahydro-2H-[1,2′]bipyridinyl-5′-sulfonyl)-6-oxo-piperazin-1-yl]-5-phenyl-thiophene-2-carboxylic acid]
- IC50 [1, 2]: ≤ 100 nM
- IC50 (HCV polymerase): 3 nM

Compound: C[C@@H]1C[C@@H](O)CN1c1ccc(S(=O)(=O)N2CC(=O)N(c3cc(-c4ccccc4)sc3C(=O)O)C(C3CCCCC3)C2)cn1 (stereo partly drawn) [Compound 122, 3-{2-Cyclohexyl-4-[6-((2R,4R)-4-hydroxy-2-methyl-pyrrolidin-1-yl)-pyridine-3-sulfonyl]-6-oxo-piperazin-1-yl}-5-phenyl-thiophene-2-carboxylic acid]
- IC50 [1, 2]: ≤ 100 nM
- IC50 (HCV polymerase): 2 nM

Compound: O=C(O)c1sc(-c2ccccc2)cc1N1C(=O)CN(S(=O)(=O)c2ccc(N3CCCCC3)nc2)C[C@H]1C1CCCCC1 [Compound 179, 3-[(R)-2-Cyclohexyl-6-oxo-4-(3,4,5,6-tetrahydro-2H-[1,2′]bipyridinyl-5′-sulfonyl)-piperazin-1-yl]-5-phenyl-thiophene-2-carboxylic acid]
- IC50 [1, 2]: ≤ 100 nM
- IC50 (HCV polymerase): 1 nM

Compound: Cn1cc(-c2ccc(S(=O)(=O)N3CC(=O)N(c4cc(-c5ccccc5)sc4C(=O)O)[C@H](C4CCCCC4)C3)cn2)cn1 [Compound 222, 3-{(R)-2-Cyclohexyl-4-[6-(1-methyl-1H-pyrazol-4-yl)-pyridine-3-sulfonyl]-6-oxo-piperazin-1-yl}-5-phenyl-thiophene-2-carboxylic acid]
- IC50 [1, 2]: ≤ 100 nM
- IC50 (HCV polymerase): 2 nM
